Publication PMC10041525, “New Dual Inhibitors of Bacterial Topoisomerases with Broad-Spectrum Antibacterial Activity and In Vivo Efficacy against Vancomycin-Intermediate Staphylococcus aureus” (Journal of Medicinal Chemistry, 2023)
Values after ≈ are worked out from the molar mass of the structure shown. Where two headings read alike, the source gives them in different places.

Key:
DNA gyrase from E. coli = biological target: T1, DNA gyrase from E. coli (Escherichia coli, UniProt P0AES6); experiment: supercoiling HTS plate assay; assay type: biochemical; details: IC50 [nM] E. coli DNA gyrase
T1 construct: purchased Inspiralis
Description: (§1) All compounds were tested for their inhibitory activities against DNA gyrase and topo IV from E. coli in supercoiling and relaxation high-throughput plate assays, respectively. Our new series of inhibitors were then tested against a panel of Gram-positive and Gram-negative bacteria.
(§2) Seven concentrations of the inhibitors were used to determine IC50 values which were then calculated with GraphPad Prism 6.0 software. Three independent measurements were performed to determine IC50 values, and mean values are reported as the final result.

topo IV from E. coli = biological target: T2, topo IV from E. coli (Escherichia coli, UniProt P20083); experiment: relaxation HTS plate assay; assay type: biochemical
T2 construct: purchased Inspiralis
T2 sequence (P0AFI2 whole entry): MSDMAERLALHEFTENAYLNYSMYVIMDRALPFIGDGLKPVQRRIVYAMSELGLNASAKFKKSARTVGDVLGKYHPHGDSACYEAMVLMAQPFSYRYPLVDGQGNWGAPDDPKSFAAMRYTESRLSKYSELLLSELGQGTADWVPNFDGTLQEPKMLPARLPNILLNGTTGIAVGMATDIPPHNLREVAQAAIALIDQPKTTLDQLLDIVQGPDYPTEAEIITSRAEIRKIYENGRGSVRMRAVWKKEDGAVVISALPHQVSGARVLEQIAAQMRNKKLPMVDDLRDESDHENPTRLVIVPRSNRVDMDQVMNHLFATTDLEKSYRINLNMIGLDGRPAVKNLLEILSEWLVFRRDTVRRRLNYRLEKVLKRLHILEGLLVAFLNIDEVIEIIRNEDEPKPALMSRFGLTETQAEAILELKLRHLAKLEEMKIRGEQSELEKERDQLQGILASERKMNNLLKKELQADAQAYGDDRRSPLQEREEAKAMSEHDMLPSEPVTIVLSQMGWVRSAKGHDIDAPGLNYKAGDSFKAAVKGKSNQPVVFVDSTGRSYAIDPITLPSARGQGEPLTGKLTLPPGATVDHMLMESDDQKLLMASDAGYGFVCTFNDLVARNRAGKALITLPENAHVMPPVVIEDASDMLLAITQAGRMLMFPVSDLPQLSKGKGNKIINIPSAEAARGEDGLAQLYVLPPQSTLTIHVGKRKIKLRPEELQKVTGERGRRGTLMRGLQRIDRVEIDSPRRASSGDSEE
T2 sequence (P20083 whole entry): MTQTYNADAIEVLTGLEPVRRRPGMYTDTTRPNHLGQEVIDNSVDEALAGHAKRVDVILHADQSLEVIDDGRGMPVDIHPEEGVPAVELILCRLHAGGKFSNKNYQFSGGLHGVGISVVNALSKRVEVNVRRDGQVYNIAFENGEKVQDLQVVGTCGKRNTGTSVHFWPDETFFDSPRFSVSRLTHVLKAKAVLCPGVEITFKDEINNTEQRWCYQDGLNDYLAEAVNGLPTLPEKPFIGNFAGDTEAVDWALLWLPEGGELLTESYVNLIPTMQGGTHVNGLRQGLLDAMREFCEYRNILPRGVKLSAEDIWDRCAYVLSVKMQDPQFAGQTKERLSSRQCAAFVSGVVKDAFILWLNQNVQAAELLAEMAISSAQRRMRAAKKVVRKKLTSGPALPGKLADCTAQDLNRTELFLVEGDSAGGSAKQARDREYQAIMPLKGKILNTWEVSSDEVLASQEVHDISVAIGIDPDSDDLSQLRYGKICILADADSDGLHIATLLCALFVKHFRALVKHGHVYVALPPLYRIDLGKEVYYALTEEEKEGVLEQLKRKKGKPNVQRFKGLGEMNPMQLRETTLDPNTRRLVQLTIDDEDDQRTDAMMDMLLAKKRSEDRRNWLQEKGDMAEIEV
Description: as §1, §2

A. baumannii ATCC 17978 = experiment: MIC broth microdilution (CLSI); assay type: cell-based; details: Acinetobacter baumannii, ATCC17978
Description: (§3) Cation-adjusted Mueller Hinton broth 2 (MHBII) was used for bacterial growth under standard laboratory conditions and for antimicrobial susceptibility tests. MHBII broth was prepared by dissolving 22 g of MHBII powder [containing beef extract (3 g), acid hydrolysate of casein (17.5 g), and starch (1.5 g); Becton Dickinson and Co.] in 1 L of water. To prepare MHBII agar, 14 g of agar (Bacto; Molar Chemicals) was added to 1 L of broth.
(§4) Bacterial strains were inoculated onto MHBII agar plates and grown overnight at 37 °C. Next, three individual colonies from each strain were inoculated into 1 mL of MHBII medium and propagated at 37 °C overnight, with agitation at 250 rpm. For Enterococcus sp., the cells were plated in brain–heart infusion [(BHI) medium] agar plates, and BHI broth was used to determine the MICs. […] Following the dilutions, each well was seeded with 5 × 10^4 bacterial cells (in 100 μL final volume). Each measurement was performed in three parallel replicates, and to avoid possible edge effects in the microwell plates, the outside rows (A, H) were filled with sterile medium. Following the inoculations, the plates were covered with the lids and wrapped in polyethylene plastic bags, to minimize evaporation but to allow O2 transfer. […] After incubation, the OD600 of each well was measured using a microplate reader (Synergy 2; Biotek).

S. aureus ATCC 29213 = experiment: MIC broth microdilution (CLSI); assay type: cell-based; details: Staphylococcus aureus, ATCC29213
Description: as §3, §4

[1] = system: Enterococcus faecalis ATCC 29212; experiment: MIC broth microdilution (CLSI); assay type: cell-based, E. faecalis; details: Enterococcus faecalis, ATCC29212; read-out: MIC
Description: as §3, with “MICs (Tables 1 and S1–S3) were determined with a standard serial broth microdilution technique according to Clinical and Laboratory Standards Institute (CLSI) guidelines.[45] Cation-adjusted” for “Cation-adjusted”
(§5) Bacterial strains were inoculated onto MHBII agar plates and grown overnight at 37 °C. Next, three individual colonies from each strain were inoculated into 1 mL of MHBII medium and propagated at 37 °C overnight, with agitation at 250 rpm. For Enterococcus sp., the cells were plated in brain–heart infusion [(BHI) medium] agar plates, and BHI broth was used to determine the MICs. […] The highest final DMSO concentration in the experiments was 0.64% (in the case of the 64 μg/mL concentration of the inhibitor). Following the dilutions, each well was seeded with 5 × 10^4 bacterial cells (in 100 μL final volume). Each measurement was performed in three parallel replicates, and to avoid possible edge effects in the microwell plates, the outside rows (A, H) were filled with sterile medium. Following the inoculations, the plates were covered with the lids and wrapped in polyethylene plastic bags, to minimize evaporation but to allow O2 transfer. The plates were incubated at 37 °C under continuous shaking at 150 rpm for 18 h. After incubation, the OD600 of each well was measured using a microplate reader (Synergy 2; Biotek). The MICs were defined as the antibiotic concentrations which inhibited the growth of the bacterial cultures; that is, the drug concentration where the average OD600 increment of the three technical replicates was below 1.5-fold the background OD increment.

E. coli ATCC 25922 = experiment: MIC broth microdilution (CLSI); assay type: cell-based; details: Escherichia coli, ATCC25922; read-out: MIC
Description: as §3, with “MICs (Tables 1 and S1–S3) were determined with a standard serial broth microdilution technique according to Clinical and Laboratory Standards Institute (CLSI) guidelines.[45] Cation-adjusted” for “Cation-adjusted”
as §5

E. faecium ATCC 700221 = experiment: MIC broth microdilution (CLSI); assay type: cell-based
Description: as §3, with “MICs (Tables 1 and S1–S3) were determined with a standard serial broth microdilution technique according to Clinical and Laboratory Standards Institute (CLSI) guidelines.[45] Cation-adjusted” for “Cation-adjusted”
as §5

[2] = system: Enterobacter cloacae spp. cloacae ATCC 13047; experiment: MIC broth microdilution (CLSI); assay type: cell-based; details: Enterobacter cloacae, ATCC13047; read-out: MIC
Description: as §3, with “MICs (Tables 1 and S1–S3) were determined with a standard serial broth microdilution technique according to Clinical and Laboratory Standards Institute (CLSI) guidelines.[45] Cation-adjusted” for “Cation-adjusted”
as §5

K. pneumoniae ATCC 10031 = experiment: MIC broth microdilution (CLSI); assay type: cell-based
Description: as §3, with “MICs (Tables 1 and S1–S3) were determined with a standard serial broth microdilution technique according to Clinical and Laboratory Standards Institute (CLSI) guidelines.[45] Cation-adjusted” for “Cation-adjusted”
as §5

P. aeruginosa ATCC 27853 = experiment: MIC broth microdilution (CLSI); assay type: cell-based; details: Pseudomonas aeruginosa, ATCC27853; read-out: MIC
Description: as §3, with “MICs (Tables 1 and S1–S3) were determined with a standard serial broth microdilution technique according to Clinical and Laboratory Standards Institute (CLSI) guidelines.[45] Cation-adjusted” for “Cation-adjusted”
as §5

[3] = system: S. aureus (MRSA) ATCC 43300; experiment: MIC broth microdilution (CLSI); assay type: cell-based; details: Staphylococcus aureus
Description: as §3, with “MICs (Tables 1 and S1–S3) were determined with a standard serial broth microdilution technique according to Clinical and Laboratory Standards Institute (CLSI) guidelines.[45] Cation-adjusted” for “Cation-adjusted”
as §5

[4] = system: S. aureus (VISA) ATCC 700699; experiment: MIC broth microdilution (CLSI); assay type: cell-based; details: Staphylococcus aureus; read-out: MIC
Description: as §3, with “MICs (Tables 1 and S1–S3) were determined with a standard serial broth microdilution technique according to Clinical and Laboratory Standards Institute (CLSI) guidelines.[45] Cation-adjusted” for “Cation-adjusted”
as §5

physchem = assay type: physicochemical; details: phosphate-buffered saline (PBS)
Description: For the PBS, 2.38 g of disodium hydrogen phosphate dodecahydrate, 0.19 g of potassium dihydrogen phosphate, and 8.0 g of sodium chloride were added to distilled water (900 mL), and the solution was mixed overnight. […] Samples were prepared by weighing the exact mass of solid compounds (about 1 mg), and then, the appropriate volume of PBS was added to reach the final concentration of ∼1 mg/mL. […] The supernatant was diluted 3× with a 1:1 mixture of 0.1% TFA in water and acetonitrile and analyzed by HPLC. For the 7-point calibration curves, concentrated stock solutions of the compounds were prepared at concentrations of 10 and 0.5 mM in DMSO, which were diluted with a 1:1 mixture of 0.1% TFA in water and acetonitrile to the desired final concentrations and analyzed by HPLC. Results are given in μM as an average value of two independent experiments. For details on calibration curves, concentrations, analytical method, and HPLC method, see the Supporting Information.
Thermodynamic solubility assay
To determine thermodynamic solubility of compounds in PBS, calibration curves for the assayed compounds were prepared using seven concentrations. First, DMSO stock solutions of compounds at 10 mM and 0.5 mM concentration were prepared and then diluted (0.1% TFA in […]
Quality control (QC) samples were diluted from stock solutions with a 1:1 mixture of 0.1% TFA in water and acetonitrile to final concentrations of 60 µM, 20 µM, and 2 µM (6 µM, 2 µM, and 0.2 µM for 7f or 0.6 µM, 0.2 µM, and 0.02 µM for 7g).
Analytical reversed-phase UHPLC analyses were performed on Thermo Scientific Dionex UltiMate 3000 modular system (Thermo Fisher Scientific Inc., MA, USA). Waters Acquity UPLC® HSS C18 SB column (2.1 × 50 mm, 1.8 μm; Waters, Milford, MA, USA) was used at T […]
Mobile phase consisted of 0.1% trifluoroacetic acid in ultrapure water (solvent A) and acetonitrile […]
The obtained data was processed in Chromeleon CDS software (Thermo Fisher Scientific Inc., […]
Analytical method was tested for accuracy, precision and linear rang. Accuracy was […]
(or 2 or 0.2) µM and 60 (or 6 or 0.6) µM) to their true values and expressed in (%). Values were […]
Method repeatability was determined by calculating the RSD from the separately prepared and analysed quality control samples (n = 3). […] Linearity of the […]
method (1 (or 0.1 or 0.01) µM to 100 (or 10 or 1) µM) was evaluated from the 7-point calibration […]
Solubility was determined in two independent experiments and results were calculated in […]

[5] = read-out: MIC [µg/mL] (A. baumannii ATCC 17978)
[6] = read-out: MIC [µg/mL](S. aureus ATCC 29213)
[7] = Enterococcus faecium, ATCC700221, read-out: MIC
[8] = Klebsiella pneumoniae, ATCC10031, read-out: MIC
[9] = read-out: MIC [µg/mL](S. aureus MRSA ATCC4330)
[10] = read-out: IC50 [nM] E. coli TopoIV

| Compound | IC50 (DNA gyrase from E. coli) | IC50 (topo IV from E. coli; IC50) | IC50 (topo IV from E. coli; IC50 [nM] E. coli TopoIV) | MIC (A. baumannii ATCC 17978; read-out: MIC) | MIC (A. baumannii ATCC 17978; [5]) | MIC (S. aureus ATCC 29213; read-out: MIC) | MIC (S. aureus ATCC 29213; [6]) | MIC [1] | MIC (E. coli ATCC 25922) | MIC (E. faecium ATCC 700221; [7]) | MIC [2] | MIC (K. pneumoniae ATCC 10031; [8]) | MIC (P. aeruginosa ATCC 27853) | MIC ([3]; read-out: MIC) | MIC [3, 9] | MIC [4] | IC50 (topo IV from E. coli; [10]) | other results |
| --- | --- | --- | --- | --- | --- | --- | --- | --- | --- | --- | --- | --- | --- | --- | --- | --- | --- | --- |
| Cc1[nH]c(C(=O)Nc2nc3c(N4CC[C@H](N)C4)cc(C(=O)O)cc3s2)c(Cl)c1Cl.Cl [8a, (S)-1-(6-Carboxy-2-(3,4-dichloro-5-methyl-1H-pyrrole-2-carboxamido)benzo[d]thiazol-4-yl)pyrrolidin-3-aminium Chloride] | < 10 nM | < 100 nM | 38 ± 10 nM | > 32 µg/mL | > 32 µg/mL | 32 µg/mL | 32 µg/mL | 32 µg/mL | > 32 µg/mL | 32 µg/mL | > 32 µg/mL | 4 µg/mL | > 32 µg/mL | 16 µg/mL | 16 µg/mL | 8 µg/mL |  | MIC (K. pneumoniae ATCC 10031): 4 µg/mL |
| Cc1[nH]c(C(=O)Nc2nc3c(N4CCOC4=O)cc(C(=O)O)cc3s2)c(Cl)c1Cl [7m, 2-(3,4-Dichloro-5-methyl-1H-pyrrole-2-carboxamido)-4-(2-oxooxazolidin-3-yl)benzo[d]thiazole-6-carboxylic Acid] | < 10 nM |  |  | > 64 µg/mL | > 64 µg/mL | 64 µg/mL | 64 µg/mL | 4 µg/mL | > 64 µg/mL | 4 µg/mL | > 64 µg/mL | 32 µg/mL | > 64 µg/mL | 64 µg/mL | 64 µg/mL | 8 µg/mL | 180 ± 16 nM | MIC (E. faecium ATCC 700221): 4 µg/mL |
| Cc1[nH]c(C(=O)Nc2nc3c(N4CCC5(CC4)OCCO5)cc(C(=O)O)cc3s2)c(Cl)c1Cl [7r, 2-(3,4-Dichloro-5-methyl-1H-pyrrole-2-carboxamido)-4-(1,4-dioxa-8-azaspiro[4.5]decan-8-yl)benzo[d]thiazole-6-carboxylic Acid] | 17 ± 11 nM |  |  | 8 µg/mL | 8 µg/mL | < 0.0312 µg/mL | < 0.0312 µg/mL | < 0.0312 µg/mL | 4 µg/mL | < 0.0312 µg/mL | 32 µg/mL | 2 µg/mL | 8 µg/mL | < 0.0312 µg/mL | < 0.0312 µg/mL | < 0.0312 µg/mL |  | solubility thermodynamic at 24 h (physchem; pH 7.4, PBS pH 7.4, read-out: thermodynamic solubility, Experiment 1): 26.7 µM (≈ 13.7 µg/mL); solubility thermodynamic at 24 h (physchem; pH 7.4, PBS pH 7.4, read-out: thermodynamic solubility, Experiment 2): 27.3 µM (≈ 13.9 µg/mL); solubility thermodynamic at 24 h (physchem; pH 7.4, thermodynamic solubility (pH = 7.4), PBS, 37 °C, 24 h, mean of two): 27 µM (≈ 13.8 µg/mL) |
| Cc1[nH]c(C(=O)Nc2nc3c(N4CC[S+]([O-])CC4)cc(C(=O)O)cc3s2)c(Cl)c1Cl [7s, 2-(3,4-Dichloro-5-methyl-1H-pyrrole-2-carboxamido)-4-(1-oxidothiomorpholino)benzo[d]thiazole-6-carboxylic Acid] | < 10 nM | < 100 nM | 72 ± 3 nM | > 64 µg/mL | > 64 µg/mL | > 64 µg/mL | > 64 µg/mL | 16 µg/mL | > 64 µg/mL | 16 µg/mL | > 64 µg/mL | 32 µg/mL | > 64 µg/mL | 64 µg/mL | 64 µg/mL | > 64 µg/mL |  |  |
| Cc1[nH]c(C(=O)Nc2nc3c(N4CCCC4)cc(C(=O)O)cc3s2)c(Cl)c1Cl [7j, 2-(3,4-Dichloro-5-methyl-1H-pyrrole-2-carboxamido)-4-(pyrrolidin-1-yl)benzo[d]thiazole-6-carboxylic Acid] | < 10 nM |  |  | 4 µg/mL | 4 µg/mL | 0.25 µg/mL | 0.25 µg/mL | 0.125 µg/mL | 16 µg/mL | 0.25 µg/mL | > 32 µg/mL | 8 µg/mL | 4 µg/mL | 0.125 µg/mL | 0.125 µg/mL | 0.0625 µg/mL | 68 ± 16 nM | IC50 (topo IV from E. coli; read-out: IC50): < 100 nM |
